Experimental data reported in a melting point compilation (Tetko et al.).

SMILES | melting point [°C]
O=C1NC(=O)C2(CCS(=O)(=O)CC2)N1 | 327 to 329
Cc1cc(O)cc(=O)n1CCC(=O)O | 172 to 174
COC(=O)c1ccnc(Cl)c1 | 31 to 33
CCc1ccc(Nc2nnc(S)s2)cc1 | 151 to 153
CCCC1CCc2[nH]c(=O)sc2C1 (stereo not given) | 119 to 121
Cc1c(S(=O)(=O)Cl)cnn1-c1ccccn1 | 53 to 55
CCCS(=O)(=O)N1CCC(N)CC1 | 49 to 51
CC(=O)NCc1ccc(C(C)=O)s1 | 129 to 131
N#CCCc1c(Cl)cccc1Cl | 40 to 42
Cc1csc(NCC(F)(F)F)n1 | 142 to 144
Cc1cc(-c2nc(C)cs2)c(=O)[nH]n1 | 267 to 269
CC(C)n1cc(S(=O)(=O)Cl)cn1 | 53 to 55
O=C1CC(c2ccccn2)CN1 (stereo not given) | 79 to 81
Cc1cnc2c(C)cnn2c1N | 239 to 241
Cc1nnnn1-c1cccc(N)c1 | 121 to 123
CC(Cl)C(=O)N1CCN(c2ncccn2)CC1 (stereo not given) | 96 to 98
Cc1nc(S)nc(C)c1CCC(=O)O | 154 to 156
O=C1Cc2cc3c(cc2CCN1)OCCO3 | 226 to 228
CC(C)(C)c1nccc(N)n1 | 64 to 66
CCOC(=O)c1nc(C)oc1N | 123 to 125
C=CCn1c(S)nc2sc3c(c2c1=O)CCC(C)C3 (stereo not given) | 228 to 230
CC(=O)c1cnn(C)c1C | 47 to 49
CC(C)(C)Nc1nnc(S)s1 | 164 to 166
CC1(C)CC(C=Cc2ccccn2)=Cc2c1sc(N)c2C#N | 200 to 202

SMILES | melting point [°C]
Cc1cc(C(=O)NN)c(C)o1 | 132 to 134
NC(=O)Cn1cc(C(=O)O)nn1 | 198 to 200
FC(F)(F)c1ccc2nnc(C3CCCNC3)n2c1 (stereo not given) | 226 to 228
CCc1nc(NC(=O)CCl)sc1C | 124 to 126
CS(=O)(=O)c1ccc(Cl)c(S(=O)(=O)Cl)c1 | 141 to 143
CCNc1nc(C)c(C(=O)O)s1 | 171 to 173
N#Cc1ccc(Cl)cc1NC1CCCC1 | 74 to 76
Clc1cc(C2CC2)nc2ncnn12 | 99 to 101
CCOC(=O)Cn1[nH]cc(C#N)c1=N | 121 to 123
CCC(=O)NC(C)C(=O)O (stereo not given) | 89 to 91
CN(C)Cc1ccnc(N)c1 | 58 to 60
CCOC(=O)CSc1nnc(-c2ccco2)o1 | 59 to 61
CNS(=O)(=O)c1ccc(C)c(N)c1 | 83 to 85
Cc1ccc(-c2csc3ncnc(Cl)c23)cc1C | 179 to 181
Cc1nc(N)nc2c1CCCC2 | 181 to 185
Cc1c(F)cc(C#N)cc1[N+](=O)[O-] | 75 to 77
CS(=O)(=O)OCCn1cc(C#N)cn1 | 64 to 66
CN(CC(=O)NC1CC1)C(=O)CCl | 113 to 115
Cn1nc(CCl)[nH]c1=O | 139 to 141
Cc1nc(N)ccc1I | 99 to 100
O=C(O)CNC(=O)Cn1cncn1 | 206 to 208
CCN1C(=O)CNC1=O | 100 to 102
COC(=O)C1(N)CCS(=O)(=O)CC1 | 124 to 126
CC1CC(=O)NC(=O)C1 | 144 to 146

Next, values leading:

melting point [°C] | SMILES
41 to 43 | COC(=O)c1cc(F)ccc1CBr
181 to 183 | O=C(O)c1ccc(Br)c(S(=O)(=O)Cl)c1
125 to 127 | Nc1cccc(Oc2ncccn2)c1
199 to 201 | NC(=O)C1CCN(c2ccccc2N)CC1
218 to 220 | Cc1ccc(-n2cc(C(=O)O)c(C(C)(C)C)n2)cc1
206 to 208 | Nc1cccc(-c2ccc(=O)[nH]n2)c1
215 to 217 | Cc1[nH]c2ccc(F)cc2c1C=O
133 to 135 | O=C(O)C(Oc1ccc(F)cc1Br)c1ccccc1 (stereo not given)
149 to 151 | Nc1nc(-c2ccccc2)no1
195 to 197 | O=C(O)c1cccc(-n2cc(Br)cn2)c1
204 to 206 | Cc1c(C(=O)O)ccc2cnc(C3CC3)n12
159 to 161 | CCN(CC)S(=O)(=O)c1cc(C(=O)O)ccc1F
110 to 112 | Cc1nn(-c2ccccc2)c(C)c1CC(=O)O
296 to 298 | NC(=O)Nc1ccc(C(=O)O)cc1
170 to 172 | CCc1ccc(-c2ccc(C(=O)O)o2)cc1
235 to 237 | O=C(O)c1nn(-c2ccccc2F)cc1Br
138 to 140 | NC(Cc1nc2ccccc2[nH]1)=NO
174 to 176 | COc1ccc(Cc2nnc(N)s2)cc1
65 to 67 | Cc1nnc(C2Cc3ccccc3CN2)o1 (stereo not given)

melting point [°C] | SMILES
105 to 107 | O=c1c2ccccc2ncn1CCBr
225 to 227 | O=C(O)c1ccccc1NS(=O)(=O)c1ccc2[nH]c(=O)[nH]c2c1
194 to 196 | O=C(O)c1ncoc1-c1ccccc1Cl
53 to 55 | COc1cccc(OC)c1CO
92 to 94 | COC(=O)c1ncsc1SCc1ccccc1
76 to 78 | O=C(c1ccccc1)c1ccc(Br)cc1F
225 to 227 | O=C(O)c1cc(=O)n(-c2ccc([N+](=O)[O-])cc2)[nH]1
165 to 167 | Cc1cc(/C=C(\C#N)C(=O)O)c(C)n1-c1ccccc1F
290 to 292 | O=[N+]([O-])c1[nH]cnc1-c1ccc(F)cc1
119 to 121 | OCc1cc(F)cc(CO)c1O
168 to 170 | Nc1ccc(CN2C(=O)CNC2=O)cc1
101 to 103 | CC(=O)CC(=O)Nc1ccc(F)cc1
114 to 116 | CC(C)C(Br)C(=O)Nc1ccccc1Cl (stereo not given)
73 to 77 | Nc1ncc(Cc2cccc(C(F)(F)F)c2)s1
214 to 216 | O=C(O)c1ccc(COc2ccccc2)cc1
156 to 158 | COCCc1nnc(-c2cccc(C(=O)O)c2)o1
180 to 182 | Nc1c2c(nn1-c1ccccc1)CCC2
196 to 198 | O=C(O)c1ccc(NCCO)cc1
97 to 99 | O=C1CC(c2ccccc2F)C(=O)N1 (stereo not given)

melting point [°C] | SMILES
177 to 179 | O=Cc1ccc(-c2nc3ccccc3s2)o1
167 to 169 | COc1cc(-c2ccccc2)sc1C(=O)O
138 to 140 | COC(=O)c1cc(Br)cc(S(N)(=O)=O)c1
165 to 169 | O=C(O)/C=C/c1ccc2c(c1)OCCO2
44 to 46 | CN(C)Cc1ccc(-c2ccccc2C#N)cc1
139 to 141 | O=C(CN1CCNCC1)N1CCc2ccccc21
65 to 67 | CNCc1cn(-c2ccccc2)nc1-c1ccc(Cl)cc1
103 to 105 | NS(=O)(=O)C1CN(C(=O)OCc2ccccc2)C1
138 to 140 | Nc1nc(-c2cccc(Oc3ccccc3)c2)ns1
126 to 128 | c1ccc(-c2cc[nH]c2)nc1
177 to 179 | NC(=O)c1ccc(-c2nc(CCl)cs2)cc1
87 to 89 | CC(c1ccco1)N(C(=O)CCl)c1ccccn1 (stereo not given)
87 to 89 | CC1CCCN1C(=O)c1ccc(C#N)cc1 (stereo not given)
59 to 61 | OCc1nc2ccccc2o1
49 to 51 | CC(Cc1ccc(Cl)cc1Cl)C(=O)O (stereo not given)
101 to 103 | COC(=O)c1ccc(C#N)cc1OC
297 to 299 | CC(N)(C(=O)O)c1ccc(Cl)cc1 (stereo not given)
204 to 206 | O=c1ccnc(-c2ccccc2)[nH]1
135 to 137 | COc1ccc(S(N)(=O)=O)cc1OC
